The source of these data is patent publication US20060100431A1, “Biologically active compounds” (Amura Therapeutics Limited, priority 2002, published 2006).

Test [1] concerns the target Wild-type cruzipain (Trypanosoma cruzi, UniProt P25779). The experiment in a line: Trypanosoma cruzi cruzipain peptidase activity assay (Ki). The format is biochemical. The note with it: read-out: Ki, inhibitors of cruzain and cruzipains. The procedure, abridged: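 Native cruzipain from T. cruzi Dm28 epimastigotes, 2.5 nM, in 100 mM sodium phosphate pH 6.75 with 1 mM EDTA and 10 mM L-cysteine, 25 °C, DMSO <1%. Rates taken from continuous fluorogenic substrate read; Ki by regression assuming reversible pure-competitive inhibition.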

Test [2] deals with T1, CPB2.8ΔCTE (Leishmania mexicana, UniProt P36400).
T1 construct: Wild-type recombinant CPB without the C-terminal extention (i.e. CPB2.8ΔCTE); Dr. Jeremy Mottram (Wellcome Centre for Molecular Parasitology, University of Glasgow)
T1 sequence (P36400 126-343, stated change not applied): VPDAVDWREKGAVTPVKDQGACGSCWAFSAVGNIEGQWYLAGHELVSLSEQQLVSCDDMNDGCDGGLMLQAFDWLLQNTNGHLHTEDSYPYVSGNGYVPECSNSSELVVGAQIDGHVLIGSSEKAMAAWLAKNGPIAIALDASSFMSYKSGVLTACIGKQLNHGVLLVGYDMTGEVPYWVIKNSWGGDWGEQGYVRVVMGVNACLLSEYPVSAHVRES
The experiment in a line: Leishmania mexicana cysteine protease B (CPB) peptidase activity assay (Ki). In kind it is biochemical. Conditions: Ki, inhibitors of Leismania mexicana CPB protease. How it is done: Unless otherwise stated, all general chemicals and biochemicals were purchased from either the Sigma Chemical Company, Poole, Dorset, U.K or from Fisher Scientific UK, Loughborough, Leicestershire, U.K. Absorbance assays were carried out in flat-bottomed 96-well plates (Spectra; Greiner Bio-One Ltd., Stonehouse, Gloucestershire, U.K.) using a SpectraMax PLUS384 plate reader (Molecular Devices, Crawley, U.K.). Fluorescence high throughput assays were carried out in either 384-well microtitre plates (Corning Costar 3705 plates, Fisher Scientific) or 96-well ‘U’ bottomed Microfluor W1 microtitre plates (Thermo Labsystems, Ashford, Middlesex, U.K.). Fluorescence assays were monitored using a SpectraMax Gemini fluorescence plate reader (Molecular Devices). For substrates employing either a 7-amino-4-methylcoumarin (AMC) or a 7-amino-4-trifluoromethylcoumarin (AFC) fluorophore, assays were monitored at an excitation wavelength of 365 nm and an emission wavelength of 450 nm and the fluorescence plate reader calibrated with AMC. For substrates employing a 3-amino-benzoyl (Abz) fluorophore, assays were monitored at an excitation wavelength of 310 nm and an emission wavelength of 445 nm; the fluorescence plate reader calibrated with 3-amino-benzamide (Fluka). Unless otherwise indicated, all the peptidase substrates were purchased from Bachem UK, St Helens, Merseyside, UK. Substrates utilizing fluorescence resonance energy transfer methodology (i.e. FRET-based substrates) were synthesized at Incenta Limited using published methods (Atherton & Sheppard, Solid Phase Peptide Synthesis, IRL Press, Oxford, U.K, 1989) and employed Abz (2-aminobenzoyl) as the fluorescence donor and 3-nitro-tyrosine [Tyr(NO2)] as the fluorescence quencher (Meldal, M. and Breddam, K., Anal. Biochem, 195, 141-147, 1991). Hydroxyethylpiperazine ethanesulfonate (HEPES), tris-hydroxylmethyl aminomethane (tris) base, bis-tris-propane and all the biological detergents (e.g. CHAPS, zwittergents, etc.) were purchased from CN Biosciences UK, Beeston, Nottinghamshire, U.K. Glycerol was purchased from Amersham Pharmacia Biotech, Little Chalfont, Buckinghamshire, U.K. Stock solutions of substrate or inhibitor were made up to 10 mM in 100% dimethylsulfoxide (DMSO) (Rathburns, Glasgow, U.K.) and diluted as appropriately required. In all cases the DMSO concentration in the assays was maintained at less than 1% (vol./vol.).
Assay protocols were based on literature precedent (Table 4; Barrett, A. J., Rawlings, N. D. and Woessner, J. F., 1998, Handbook of Proteolytic Enzymes, Academic Press, London and references therein) and modified as required to suit local assay protocols. Enzyme was added as required to initiate the reaction and the activity, as judged by the change in fluorescence upon conversion of substrate to product, was monitored over time. All assays were carried out at 25±1° C.
Wild-type recombinant CPB without the C-terminal extention (i.e. CPB2.8ΔCTE; Sanderson, S. J., et. al., Biochem. J., 347, 383-388, 2000) was obtained from Dr. Jeremy Mottram (Wellcome Centre for Molecular Parasitology, The Anderson College, University of Glasgow, Glasgow, U.K.). Activity assays were carried out in 100 mM sodium acetate; pH 5.5 containing 1 mM EDTA; 200 mM NaCl and 10 mM DTT (Alves, L. C., et. al., Mol. Biochem. Parasitol, 116, 1-9, 2001) using 0.25 nM enzyme. […] The rate of conversion of substrate to product was derived from the slope of the increase in fluorescence monitored continuously over time.
The apparent inhibition constant (Ki) for each compound was determined on the basis that inhibition was reversible and occurred by a pure-competitive mechanism. The Ki values were calculated, from the dependence of enzyme activity as a function of inhibitor concentration, by direct regression analysis (Prism v 3.02) using Equation 2 (Cornish-Bowden, A., 1995.). [formula]

Sequence of Wild-type cruzipain (P25779 whole entry): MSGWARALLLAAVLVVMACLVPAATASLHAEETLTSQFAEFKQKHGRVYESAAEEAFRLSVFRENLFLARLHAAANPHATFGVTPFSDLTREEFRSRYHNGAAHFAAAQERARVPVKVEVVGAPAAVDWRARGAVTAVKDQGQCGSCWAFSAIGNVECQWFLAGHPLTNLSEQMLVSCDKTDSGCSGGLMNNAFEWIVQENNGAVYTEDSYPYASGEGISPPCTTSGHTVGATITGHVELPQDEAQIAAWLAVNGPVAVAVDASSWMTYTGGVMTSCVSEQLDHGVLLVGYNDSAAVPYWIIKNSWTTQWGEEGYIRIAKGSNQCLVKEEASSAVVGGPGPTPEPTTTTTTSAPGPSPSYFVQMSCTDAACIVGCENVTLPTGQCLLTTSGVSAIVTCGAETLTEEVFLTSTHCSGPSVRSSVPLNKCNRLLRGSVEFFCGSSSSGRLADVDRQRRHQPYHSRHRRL

As for `CC(C)C[C@H](NC(=O)c1ccc(-c2ccccc2)s1)C(=O)N1CC[C@@H]2[C@H]1C(=O)CN2C(=O)c1ccccc1` [Example 44, (3aR,6aS)-5-Phenyl-thiophene-2-carboxylic acid [(1S)-1-(4-benzoyl-6-oxo-hexahydro-pyrrolo[3,2-b]pyrrole-1-carbonyl)-3-methyl-butyl]-amide], the inhibition constant Ki in test [1] and in test [2] was below 5 µM each time.

Turning to `CC(C)C[C@H](NC(=O)c1ccc(N(C)C)cc1)C(=O)N1CC[C@@H]2[C@H]1C(=O)CN2C(=O)c1ccc(Oc2ccccc2)cc1` [Example 56, (3aR,6aS)-4-Dimethylamino-N-{(1S)-3-methyl-1-[6-oxo-4-(4-phenoxy-benzoyl)-hexahydro-pyrrolo[3,2-b]pyrrole-1-carbonyl]-butyl}-benzamide], the inhibition constant (Ki) in test [1] and in test [2] was below 5 µM in each case.

For `CC(C)C[C@H](NC(=O)c1ccc(N(C)C)cc1)C(=O)N1CC[C@@H]2[C@H]1C(=O)CN2C(=O)c1ccc(C(F)(F)F)cc1` [Example 69, (3aR,6aS)-4-Dimethylamino-N-{(1S)-3-methyl-1-[6-oxo-4-(4 trifluoromethyl-benzoyl)-hexahydro-pyrrolo[3,2-b]pyrrole-1-carbonyl]-butyl}-benzamide], the Ki in test [1] and in test [2] was below 5 µM throughout.

As for `CC(C)C[C@H](NC(=O)c1ccc(N(C)C)cc1)C(=O)N1OC[C@@H]2[C@H]1C(=O)CN2C(=O)c1ccccc1` [Example 248, (3aS,6aS)-N-[(1S)-1-(4-Benzoyl-6-oxo-hexahydro-2-oxa-1,4-diaza-pentalene-1-carbonyl)-3-methyl-butyl]-4-dimethylamino-benzamide], the Ki in test [1] and in test [2] was below 5 µM each time.

`CC(C)C[C@H](NC(=O)c1ccc(C(C)(C)C)cc1)C(=O)N1CC[C@@H]2[C@H]1C(=O)CN2S(=O)(=O)c1ccccc1` [Example 119, (3aR,6aS)-N-[(1S)-1-(4-Benzenesulfonyl-6-oxo-hexahydro-pyrrolo[3,2-b]pyrrole-1-carbonyl)-3-methyl-butyl]-4-tert-butyl-benzamide] yielded an inhibition constant Ki in test [2] below 5 µM.

With `CC(C)C[C@H](NC(=O)c1cccc(CN)c1)C(=O)N1CC[C@@H]2[C@H]1C(=O)CN2C(=O)[C@H](C)c1ccccc1` [Example 176, (3aR,6aS)-3-Aminomethyl-N-{(1S)-3-methyl-1-[6-oxo-4-((2R)-2-phenyl-propionyl)-hexahydro-pyrrolo[3,2-b]pyrrole-1-carbonyl]-butyl}-benzamide], in test [2], the Ki is below 5 µM.

Take `COC(=O)c1ccc(C(=O)N2CC(=O)[C@@H]3[C@H]2CCN3C(=O)[C@H](CC(C)C)NC(=O)c2ccc(N(C)C)cc2)cc1` [Example 76, (3aS,6aR)-4-{4-[(2S)-2-(4-Dimethylamino-benzoylamino)-4-methyl-pentanoyl]-3-oxo-hexahydro-pyrrolo[3,2-b]pyrrole-1-carbonyl}-benzoic acid methyl ester]: the Ki in test [2] was below 5 µM.

As for `CC(C)CC[C@H](N)C(=O)N1CC(=O)[C@@H]2[C@H]1CCN2C(=O)[C@H](CC(C)C)NC(=O)c1ccc(N(C)C)cc1` [Example 213, (3aR,6aS)-N-{(1S)-1-[4-((2S)-2-Amino-5-methyl-hexanoyl)-6-oxo-hexahydro-pyrrolo[3,2-b]pyrrole-1-carbonyl]-3-methyl-butyl}-4-dimethylamino-benzamide], the inhibition constant Ki in test [2] is below 5 µM.

Turning to `CC(C)C[C@H](NC(=O)c1ccc(N(C)C)cc1)C(=O)N1CC[C@@H]2[C@H]1C(=O)CN2C(=O)[C@@H](N)CC1CCCCC1` [Example 215, (3aR,6aS)-N-{(1S)-1-[4-((2S)-2-Amino-3-cyclohexyl-propionyl)-6-oxo-hexahydro-pyrrolo[3,2-b]pyrrole-1-carbonyl]-3-methyl-butyl}-4-dimethylamino-benzamide], the inhibitory constant (Ki) in test [2] was below 5 µM.

In test [2], `CC(C)C[C@H](NC(=O)c1ccc(N(C)C)cc1)C(=O)N1CC[C@@H]2[C@H]1C(=O)CN2C(=O)c1ccc(C(C)(C)C)cc1` [Example 75, (3aR,6aS)-N-{(1S)-1-[4-(4-tert-Butyl-benzoyl)-6-oxo-hexahydro-pyrrolo[3,2-b]pyrrole-1-carbonyl]-3-methyl-butyl}-4-dimethylamino-benzamide] returned an inhibition constant (Ki) below 5 µM.

Regarding `CCCCCC(=O)N1CC(=O)[C@@H]2[C@H]1CCN2C(=O)[C@H](CC(C)C)NC(=O)c1ccc(N(C)C)cc1` [Example 234, (3aR,6aS)-4-Dimethylamino-N-[(1S)-1-(4-hexanoyl-6-oxo-hexahydro-pyrrolo[3,2-b]pyrrole-1-carbonyl)-3-methyl-butyl]-benzamide], in test [2], the inhibition constant Ki is below 5 µM.

In test [2], `CC(C)C[C@H](NC(=O)c1ccc(-c2cccs2)cc1)C(=O)N1CC[C@@H]2[C@H]1C(=O)CN2S(=O)(=O)c1ccccc1` [Example 120, (3aR,6aS)-N-[(1S)-1-(4-Benzenesulfonyl-6-oxo-hexahydropyrrolo [3,2-b]pyrrole-1-carbonyl)-3-methyl-butyl]-4-thiophen-2-yl-benzamide] came in with a Ki below 5 µM.

In turn, `CC(C)C[C@H](NC(=O)c1ccc(C(C)(C)C)cc1)C(=O)N1CC[C@@H]2[C@H]1C(=O)CN2C(=O)Cc1ccccc1` [Example 3, (3aR,6aS)-4-tert-Butyl-N-[(1S)-3-methyl-1-(6-oxo-4-phenylacetyl-hexahydro-pyrrolo[3,2-b]pyrrole-1-carbonyl)-butyl]-benzamide] had a Ki in test [2] below 5 µM.

In the case of `CC(C)C[C@H](NC(=O)c1ccc(N(C)C)cc1)C(=O)N1CC[C@@H]2[C@H]1C(=O)CN2C(=O)[C@H](CC(N)=O)NC(=O)OCc1ccccc1` [Example 148, (3aS,6aR)-((1S)-1-Carbamoylmethyl-2-{4-[(2S)-2-(4-dimethylaminobenzoylamino)-4-methyl-pentanoyl]-3-oxo-hexahydro-pyrrolo[3,2-b]pyrrol-1-yl}-2-oxo-ethyl)-carbamic acid benzyl ester], the inhibition constant Ki in test [2] was below 5 µM.

In test [2], `CCCC(C)C(=O)N1CC(=O)[C@@H]2[C@H]1CCN2C(=O)[C@H](CC(C)C)NC(=O)c1ccc(N(C)C)cc1` (stereo partly drawn) [Example 230, (3aR,6aS)-4-Dimethylamino-N-{(1S)-3-methyl-1-[4-(2-methyl-pentanoyl)-6-oxo-hexahydro-pyrrolo[3,2-b]pyrrole-1-carbonyl]-butyl}-benzamide] returned a Ki below 5 µM.

In test [2], `CC(=O)N(C)CC(=O)N1CC(=O)[C@@H]2[C@H]1CCN2C(=O)[C@H](CC(C)C)NC(=O)c1ccc(N(C)C)cc1` [Example 201, (3aR,6aS)-N-((1S)-1-{4-[2-(Acetyl-methyl-amino)-acetyl]-6-oxo-hexahydro-pyrrolo[3,2-b]pyrrole-1-carbonyl}-3-methyl-butyl)-4-dimethylamino-benzamide] yielded a Ki below 5 µM.

In test [2], `Cc1ccc(C[C@H](NC(=O)c2ccc(C(C)(C)C)cc2)C(=O)N2CC[C@@H]3[C@H]2C(=O)CN3C(=O)Cc2ccccc2)cc1` [Example 360, (3aR,6aS)-4-tert-Butyl-N-[(1S)-1-(4-methyl-benzyl)-2-oxo-2-(6-oxo-4-phenylacetyl-hexahydro-pyrrolo[3,2-b]pyrrole-1-yl)-ethyl]-benzamide] showed a Ki below 5 µM.

For orientation: Ki means a dissociation constant, usually derived from enzyme kinetics or from competition with a known ligand.
